Measured values taken from PubChem BioAssay (NCI).
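Here, GI50 denotes the concentration required for 50% inhibition of growth. TGI: total growth inhibition.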

Assays:
Test in all cases: growth of human tumour cells (NCI), 384-well format
UO-31 renal = test system: UO-31 renal
ACHN renal = test system: ACHN renal
MCF7 breast = test system: MCF7 breast
UACC-257 melanoma = test system: UACC-257 melanoma
T-47D breast = test system: T-47D breast
A498 renal = test system: A498 renal
SF-268 CNS = test system: SF-268 CNS
786-0 renal = test system: 786-0 renal
MALME-3M melanoma = test system: MALME-3M melanoma
IGROV1 ovarian = test system: IGROV1 ovarian
SF-539 CNS = test system: SF-539 CNS
OVCAR-5 ovarian = test system: OVCAR-5 ovarian
SNB-19 CNS = test system: SNB-19 CNS
OVCAR-4 ovarian = test system: OVCAR-4 ovarian
M14 melanoma = test system: M14 melanoma
TK-10 renal = test system: TK-10 renal
HOP-92 NSCLC = test system: HOP-92 NSCLC
HCT-15 colon = test system: HCT-15 colon
SK-OV-3 ovarian = test system: SK-OV-3 ovarian
HCC-2998 colon = test system: HCC-2998 colon
NCI-H322M lung = test system: NCI-H322M lung
SN12C renal = test system: SN12C renal
NCI-H226 lung = test system: NCI-H226 lung
NCI/ADR-RES ovarian = test system: NCI/ADR-RES ovarian
KM12 colon = test system: KM12 colon
EKVX NSCLC = test system: EKVX NSCLC
A549 NSCLC = test system: A549 NSCLC
DU-145 prostate = test system: DU-145 prostate
CAKI-1 renal = test system: CAKI-1 renal
LOX IMVI melanoma = test system: LOX IMVI melanoma

C/C(=C\c1csc(C)n1)[C@@H]1C[C@@H]2O[C@]2(C)CCC[C@H](C)[C@H](O)[C@@H](C)C(=O)C(C)(C)[C@@H](O)CC(=O)N1
GI50 (UO-31 renal): 60.5 nM | TGI (UO-31 renal): > 100000 nM | GI50 (ACHN renal): 40.3 nM | TGI (ACHN renal): > 100000 nM | TGI (MCF7 breast): > 100000 nM | TGI (UACC-257 melanoma): > 100000 nM | TGI (T-47D breast): > 100000 nM | TGI (A498 renal): > 100000 nM | TGI (SF-268 CNS): > 100000 nM | TGI (786-0 renal): 87.1 nM | TGI (MALME-3M melanoma): > 100000 nM | GI50 (IGROV1 ovarian): 27.6 nM | TGI (IGROV1 ovarian): > 100000 nM | TGI (SF-539 CNS): 13.5 nM | TGI (OVCAR-5 ovarian): > 100000 nM | GI50 (SNB-19 CNS): 15.7 nM | TGI (SNB-19 CNS): > 100000 nM | TGI (OVCAR-4 ovarian): > 100000 nM | TGI (M14 melanoma): 10.3 nM | GI50 (TK-10 renal): 55.2 nM | TGI (TK-10 renal): > 100000 nM | TGI (HOP-92 NSCLC): > 100000 nM | GI50 (HCT-15 colon): 14.1 nM | TGI (HCT-15 colon): 384 nM | TGI (SK-OV-3 ovarian): > 100000 nM | TGI (HCC-2998 colon): 12.3 nM | GI50 (NCI-H322M lung): 10.7 nM | TGI (NCI-H322M lung): > 100000 nM | TGI (SN12C renal): > 100000 nM | TGI (NCI-H226 lung): > 100000 nM | GI50 (NCI/ADR-RES ovarian): 437 nM | TGI (NCI/ADR-RES ovarian): 1910 nM | TGI (KM12 colon): > 100000 nM | GI50 (EKVX NSCLC): 24 nM | TGI (EKVX NSCLC): > 100000 nM | TGI (A549 NSCLC): > 100000 nM | TGI (DU-145 prostate): 10.7 nM | TGI (CAKI-1 renal): > 100000 nM | TGI (LOX IMVI melanoma): > 100000 nM
